Assay results from EP0348735A2, “5-Chlor-4-cyano-thiazol-2-yl-oxyacetic-acid amide” (BAYER AG, priority 1988, dated 1990).

Test system: Testpflanzen
Experiment: Pre-emergence test (herbicidal activity)
Type: in vivo
Conditions: seeds watered with the preparation 24 h after sowing, rated after three weeks, compared in words with the prior-art comparison substance 2-(Benzthiazol-2-yl-oxy)-essigsäure-N-methyl-anilid, no numbers given
Source text: Zur Herstellung einer zweckmäßigen Wirkstoffzubereitung vermischt man 1 Gewichtsteil Wirkstoff mit der angegebenen Menge Lösungsmittel, gibt die angegebene Menge Emulgator zu und verdünnt das Konzentrat mit Wasser auf die gewünschte Konzentration.
Samen der Testpflanzen werden in normalen Boden ausgesät und nach 24 Stunden mit der Wirkstoffzubereitung begossen. Dabei hält man die Wassermenge pro Flächeneinheit zweckmäßigerweise konstant. Die Wirkstoffkonzentration in der Zubereitung spielt keine Rolle, entscheidend ist nur die Aufwandmenge des Wirkstoffs pro Flächeneinheit. Nach drei Wochen wird der Schädigungsgrad der Pflanzen bonitiert in % Schädigung im Vergleich zur Entwicklung der unbehandelten Kontrolle.

## CN(C(=O)COc1nc(C#N)c(Cl)s1)c1ccccc1 [Beispiel 1, 2-(5-Chlor-4-cyanothiazol-2-yl-oxy)-essigsäure-N-methyl-anilid]
  Wirksamkeit (Schädigungsgrad der Pflanzen in % Schädigung im Vergleich zur unbehandelten Kontrolle): deutliche Überlegenheit in der Wirksamkeit
